# Measured values taken from paper PMC9737391, “Trifluoromethylcinnamanilide Michael Acceptors for Treatment of Resistant Bacterial Infections” (International Journal of Molecular Sciences, 2022).
# Several values for one entry are separate records, joined by “and”; a condition that tells them apart may be missing. Equal values may be shown once. Read-outs that look alike come from different tables or passages of the source.
# What was measured:
# [1] = tested on: methicillin-resistant S. aureus SA 630 (MRSA2); assay: MIC, microtitration broth method; format: cell-based; conditions: Staphylococcus aureus; MRSA SA 630
# [2] = tested on: Enterococcus faecalis ATCC 29212; assay: MIC, microtitration broth method; format: cell-based; conditions: ATCC29212, E. faecalis reference strain
# [3] = tested on: vancomycin-resistant E. faecalis VRE 342B (VRE1); assay: MBC, agar aliquot subculture method; format: cell-based, Enterococcus faecalis
# [4] = tested on: vancomycin-resistant E. faecalis VRE 368 (VRE2); assay: MIC, microtitration broth method; format: cell-based, Enterococcus faecalis
# [5] = tested on: Staphylococcus aureus ATCC 29213; assay: MBC, agar aliquot subculture method; format: cell-based; conditions: ATCC29213, S. aureus ATCC 29213
# [6] = tested on: vancomycin-resistant E. faecalis VRE 342B (VRE1); assay: MIC, microtitration broth method; format: cell-based, Enterococcus faecalis
# [7] = tested on: vancomycin-resistant E. faecalis VRE 725B (VRE3); assay: MIC, microtitration broth method; format: cell-based, Enterococcus faecalis
# [8] = tested on: methicillin-resistant S. aureus 63718 (MRSA3); assay: MBC, agar aliquot subculture method; format: cell-based; conditions: Staphylococcus aureus; MRSA 63718
# [9] = tested on: methicillin-resistant S. aureus 63718 (MRSA3); assay: MIC, microtitration broth method; format: cell-based; conditions: Staphylococcus aureus; MRSA 63718
# [10] = tested on: methicillin-resistant S. aureus SA 630 (MRSA2); assay: MBC, agar aliquot subculture method; format: cell-based; conditions: Staphylococcus aureus; MRSA SA 630
# [11] = tested on: methicillin-resistant S. aureus SA 3202 (MRSA1); assay: MBC, agar aliquot subculture method; format: cell-based; conditions: Staphylococcus aureus; MRSA SA 3202
# [12] = tested on: human monocytic leukemia cell line THP-1; assay: In vitro cell viability (cytotoxicity screening); format: cell-based; conditions: 24 h, medium with 10% FBS, ± SD, n = 6
# Experimental: The investigated anilides can be divided into three groups. […] Higher concentrations (than 10 or 30 µM) were not possible to evaluate due to precipitation of the tested compounds in water medium. Based on all these observations, it can be concluded that the high antimicrobial activity of 3,5-CF3-substituted compounds is associated with significant cytotoxic effect against eukaryotic cells. On the other hand, the other still effective compounds, especially agents 1j and 1o, have an insignificant toxic effect, which makes them interesting for further study.
# Human monocytic leukemia THP-1 cells obtained from the European Collection of Cell Cultures (ECACC, Salisbury, UK) were used for in vitro antiproliferative assays. A recently described procedure was used.
# [13] = Lipophilicity determination by RP-HPLC; format: physicochemical; conditions: RP-HPLC, logarithm of capacity factor k
# Experimental: It is evident from the graphs in Figure 1 that the correlation coefficients of the dependences of log k/log D6.5/log D7.4 have a value of r = 0.999 (n = 32), which means that the investigated compounds behave insignificantly differently in aqueous media with different pH. Moreover, lipophilicity was calculated as log P and Clog P using two prediction programs. […] Therefore, only log P values predicted by ACD/Percepta can be used for correlations with experimental values. These matches are shown in the graphs in Figure 2, and according to the correlation coefficient r~0.940 (n = 32), it can be argued that even the predicted lipophilicity values correlate with the experimentally measured ones. However, the largest variations were observed (no difference for series 1, 2) for compounds substituted with 2-Cl, 2-CF3, 2,5-Cl, 4-F, 4-CF3, and 3,5-F, 3,5-Cl. These are mainly substituents capable of forming hydrogen and other types of non-bonding interactions both with the surrounding environment and within the molecule. Overall, series 1 (3-CF3) is less lipophilic than series 2 (4-CF3), but the differences in the experimental data are insignificant. Unsubstituted derivatives 1a/2a are the least lipophilic compounds, while derivatives 1o/2o (3,5-Cl) and 1p/2p (3,5-CF3) are the most lipophilic compounds.
# Experimental determination of lipophilicity values (log k, log D6.5, and log D7.4) was performed under the same conditions and on the same device as described by Strharsky et al..
# [14] = tested on: M. smegmatis ATCC 700084; assay: In vitro antimycobacterial evaluation (MIC); format: cell-based, Mycobacterium smegmatis; conditions: Mycolicibacterium smegmatis, ATCC700084
# [15] = tested on: vancomycin-resistant E. faecalis VRE 725B (VRE3); assay: MBC, agar aliquot subculture method; format: cell-based, Enterococcus faecalis
# [16] = tested on: E. faecalis/VRE; assay: Anti-enterococcal activity, summary over strains; format: cell-based, Enterococcus faecalis; conditions: for MIC: Enterococcus faecalis, VRE, average over the named compounds and strains, read-out: average MIC against E. faecalis/VRE; for anti-enterococcal MICs/MBCs: range over E. faecalis and VRE isolates and over the named compounds
# [17] = tested on: Staphylococcus aureus ATCC 29213; assay: MIC, microtitration broth method; format: cell-based; conditions: ATCC29213, S. aureus ATCC 29213
# [18] = tested on: vancomycin-resistant E. faecalis VRE 368 (VRE2); assay: MBC, agar aliquot subculture method; format: cell-based, Enterococcus faecalis
# [19] = tested on: M. smegmatis and M. marinum; assay: Antimycobacterial activity, summary over both strains; format: cell-based; conditions: average over the named compounds and strains; read-out: average MIC against M. smegmatis and M. marinum
# [20] = tested on: Enterococcus faecalis ATCC 29212; assay: MBC, agar aliquot subculture method; format: cell-based; conditions: ATCC29212, E. faecalis reference strain
# [21] = tested on: S. aureus/MRSA; assay: Antistaphylococcal activity, summary over strains; format: cell-based, Staphylococcus aureus; conditions: for MIC: Staphylococcus aureus, MRSA, average over the named compounds and strains, read-out: average MIC against S. aureus/MRSA; for antistaphylococcal MICs/MBCs: range over S. aureus and MRSA isolates and over the named compounds
# [22] = tested on: S. aureus ATCC 29213; assay: MTT assay, inhibition of bacterial respiration; format: cell-based, Staphylococcus aureus
# Text: The MTT assay can be used to assess cell growth by measuring respiration. Respiratory activity of bacterial cells (which is finally reflected in their viability) less than 70% after exposure to the MIC values for each tested compound is considered as a positive result of this assay. This low level of cell oxidative metabolism indicates inhibition of cell growth by inhibition of respiration. The lowest multiples of MIC values that achieved more than 70% inhibition of S. aureus ATCC 29213 viability (%) are shown in Table 3.
# The percent inhibition of respiration of S. aureus ATCC 29213 was determined through the MTT assay. The assay was performed as described recently. The percent viability is calculated through the comparison of a measured value and that of the uninhibited control: % viability = OD570E/OD570P × 100, where OD570E is the reading from the compound-exposed cells, while OD570P is the reading from the uninhibited cells (positive control). Cytotoxic potential is determined by a percent viability of <70% [46, 47].
# [23] = tested on: Mycobacterium marinum CAMP 5644; assay: In vitro antimycobacterial evaluation (MIC); format: cell-based; conditions: for MIC MM: M. marinum CAMP 5644; for MIC: Mycobacterium marinum, CAMP5644, M. marinum CAMP 5644
# [24] = tested on: methicillin-resistant S. aureus SA 3202 (MRSA1); assay: MIC, microtitration broth method; format: cell-based; conditions: Staphylococcus aureus; MRSA SA 3202
# [25] = tested on: staphylococcal biofilm; parameters: method as in ref 26, 51 = [26]; PMID 30087309; doi:10.3390/ijms19082318; 26. Pospisilova S. Kos J. Michnova H. Kapustikova I. Strharsky T. Oravec M. Moricz A.M. Bakonyi J. Kauerova T. Kollar P. Synthesis and spectrum of biological activities of novel N -arylcinnamamides In || [51]; 51. Pospisilova S. Kos J. Michnova H. Strharsky T. Cizek A. Jampilek J. N -Arylcinnamamides as antistaphylococcal agents Proceedings of the 4th International Electronic Conference on Medicinal Chemist; conditions: cited from earlier work
# [26] = tested on: S. aureus/MRSA; parameters: method as in ref 26, 51 = [26]; PMID 30087309; doi:10.3390/ijms19082318; 26. Pospisilova S. Kos J. Michnova H. Kapustikova I. Strharsky T. Oravec M. Moricz A.M. Bakonyi J. Kauerova T. Kollar P. Synthesis and spectrum of biological activities of novel N -arylcinnamamides In || [51]; 51. Pospisilova S. Kos J. Michnova H. Strharsky T. Cizek A. Jampilek J. N -Arylcinnamamides as antistaphylococcal agents Proceedings of the 4th International Electronic Conference on Medicinal Chemist; conditions: cited from earlier work
# [27] = tested on: M. tuberculosis H37Ra; parameters: method as in ref 26 = [26]; PMID 30087309; doi:10.3390/ijms19082318; 26. Pospisilova S. Kos J. Michnova H. Kapustikova I. Strharsky T. Oravec M. Moricz A.M. Bakonyi J. Kauerova T. Kollar P. Synthesis and spectrum of biological activities of novel N -arylcinnamamides In; conditions: average over the named compounds; cited from earlier work
# [28] = tested on: MRSA; parameters: method as in ref 26, 51 = [26]; PMID 30087309; doi:10.3390/ijms19082318; 26. Pospisilova S. Kos J. Michnova H. Kapustikova I. Strharsky T. Oravec M. Moricz A.M. Bakonyi J. Kauerova T. Kollar P. Synthesis and spectrum of biological activities of novel N -arylcinnamamides In || [51]; 51. Pospisilova S. Kos J. Michnova H. Strharsky T. Cizek A. Jampilek J. N -Arylcinnamamides as antistaphylococcal agents Proceedings of the 4th International Electronic Conference on Medicinal Chemist; conditions: against MRSA; cited from earlier work
# [29] = tested on: M. tuberculosis; parameters: method as in ref 26 = [26]; PMID 30087309; doi:10.3390/ijms19082318; 26. Pospisilova S. Kos J. Michnova H. Kapustikova I. Strharsky T. Oravec M. Moricz A.M. Bakonyi J. Kauerova T. Kollar P. Synthesis and spectrum of biological activities of novel N -arylcinnamamides In; conditions: MTT, at MIC values; cited from earlier work
# [30] = tested on: S. aureus ATCC 29213; conditions: MTT, cited from earlier work
# [31] = tested on: Plasmodium falciparum 3D7; parameters: method as in PMID 36431900; conditions: read-out: IC50 against Plasmodium falciparum 3D7; cited from earlier work
structure (smiles),measurement,setting,value
"O=C(/C=C/c1cccc(C(F)(F)F)c1)Nc1ccc(C(F)(F)F)cc1 [1j, (2E)-3-[3-(Trifluoromethyl)phenyl]-N-[4-(trifluoromethyl)phenyl]prop-2-enamide]",MIC,[1],1.39 µM
same,MIC,[2],22.3 µM
same,MBC,[3],22.3 µM
same,MIC,[4],44.5 µM
same,MBC,[5],2.78 µM
same,MIC,[6],22.3 µM
same,MIC,[7],22.3 µM
same,MBC,[8],5.57 µM
same,MIC,[9],2.78 µM
same,MBC,[10],1.39 µM
same,MBC,[11],2.78 µM
same,IC50,[12],> 30 µM
same,log k,[13],0.9247
same,melting point,,118 to 120 °C
same,MIC,[14],11.1 µM
same,MBC,[15],22.3 µM
same,MIC,[16],~15 µM
same,anti-enterococcal MICs/MBCs,[16],2.34 to 44.5 µM
same,MIC,[17],2.78 µM
same,MBC,[18],44.5 µM
same,MIC,[19],~4.1 µM
same,MBC,[20],22.3 µM
same,MIC,[21],~1.4 µM
same,antistaphylococcal MICs/MBCs,[21],0.15 to 5.57 µM and 0.146 to 5.57 µM
same,Conc.: lowest multiple of MIC with at least 70% inhibition of respiratory activity,[22],0.5× MIC (0.5× MBC)
same,Conc.: the same concentration as multiple of MBC,[22],0.5× MIC (0.5× MBC)
same,MIC MM,[23],0.348 – µM
same,MIC,[23],0.29 to 22.2 µM
same,MIC,[24],2.78 µM
"O=C(/C=C/c1ccc(C(F)(F)F)cc1)Nc1cc(C(F)(F)F)cc(C(F)(F)F)c1 [2p, (2E)-N-[3,5-bis(Trifluoromethyl)phenyl]-3-[4-(trifluoromethyl)phenyl]prop-2-enamide]",MIC,[1],0.293 µM
same,MIC,[2],2.34 µM
same,MBC,[3],4.68 µM
same,MIC,[4],4.68 µM
same,MBC,[5],0.146 µM
same,MIC,[6],2.34 µM
same,MIC,[7],2.34 µM
same,MBC,[8],0.293 µM
same,MIC,[9],0.293 µM
same,MBC,[10],0.585 µM
same,MBC,[11],0.585 µM
same,IC50,[12],8.9 ± 1.3 µM
same,log k,[13],1.3665
same,melting point,,207 to 209 °C
same,MIC,[14],1.17 µM
same,MBC,[15],2.34 µM
same,MIC,[16],~15 µM
same,anti-enterococcal MICs/MBCs,[16],2.34 to 44.5 µM
same,MIC,[17],0.146 µM
same,MBC,[18],9.36 µM
same,MIC,[19],~4.1 µM
same,MBC,[20],4.68 µM
same,MIC,[21],~1.4 µM
same,antistaphylococcal MICs/MBCs,[21],0.15 to 5.57 µM and 0.146 to 5.57 µM
same,Conc.: lowest multiple of MIC with at least 70% inhibition of respiratory activity,[22],2× MIC (2× MBC)
same,Conc.: the same concentration as multiple of MBC,[22],2× MIC (2× MBC)
same,MIC MM,[23],0.293 – µM
same,MIC,[23],0.29 to 22.2 µM
same,MIC,[24],0.585 µM
O=C(/C=C/c1ccccc1)Nc1cccc(C(F)(F)F)c1 [3a],effect on staphylococcal biofilm,[25],ability to inhibit the growth of staphylococcal biofilm and disrupted mature biofilm in concentrations close to MICs
same,bactericidal effect,[26],bactericidal effect in concentrations close to MICs
same,average MIC against M. tuberculosis H37Ra,[27],~ 24 µM
O=C(/C=C/c1ccccc1)Nc1cc(C(F)(F)F)cc(C(F)(F)F)c1 [3b],effect in combination with ciprofloxacin,[28],synergistic effect
same,effect in combination with tetracycline,[28],synergistic effect
same,effect in combination with vancomycin,[28],additivity
same,effect on staphylococcal biofilm,[25],ability to inhibit the growth of staphylococcal biofilm and disrupted mature biofilm in concentrations close to MICs
same,inhibition of M. tuberculosis respiration,[29],77%
same,bactericidal effect,[26],bactericidal effect in concentrations close to MICs
same,average MIC against M. tuberculosis H37Ra,[27],~ 24 µM
O=C(/C=C/c1ccccc1)Nc1ccc(C(F)(F)F)c(F)c1 [3c],inhibition of S. aureus respiration,[30]; at MIC value,86%
O=C(/C=C/c1ccccc1)Nc1cc(Cl)cc(Cl)c1 [3d],inhibition of M. tuberculosis respiration,[29],77%
same,average MIC against M. tuberculosis H37Ra,[27],~ 24 µM
O=C(/C=C/c1ccccc1)Nc1ccc(Br)cc1Cl [3f],IC50,[31],0.58 µM
O=C(/C=C/c1ccc(Cl)c(Cl)c1)Nc1cc(C(F)(F)F)cc(C(F)(F)F)c1 [4f],inhibition of S. aureus respiration,[30]; at 0.25× MIC,96%
